Assay results: patent US7875647B2, “Heteroaryl-pyrazole derivatives as cannabinoid CB1 receptor antagonists” (Green Cross Corporation, priority 2006, dated 2011)

biological target: T1, Cannabinoid-1 receptor (CB1R) (Rattus norvegicus, UniProt P20272); assay: Cannabinoid-1 receptor (CB1R) binding affinity assay ([3H]CP-55940, rat CB-1 receptor binding protocol); conditions: brain tissue of SD rats, [3H]CP-55940, 30° C. 60 min; read-out: IC50
T1 construct: The tissue obtained from the brain of SD rats was homogenized; from tissue; host or cells: brain of SD rats (membrane pellet of the homogenate)
T1 sequence (P20272 whole entry): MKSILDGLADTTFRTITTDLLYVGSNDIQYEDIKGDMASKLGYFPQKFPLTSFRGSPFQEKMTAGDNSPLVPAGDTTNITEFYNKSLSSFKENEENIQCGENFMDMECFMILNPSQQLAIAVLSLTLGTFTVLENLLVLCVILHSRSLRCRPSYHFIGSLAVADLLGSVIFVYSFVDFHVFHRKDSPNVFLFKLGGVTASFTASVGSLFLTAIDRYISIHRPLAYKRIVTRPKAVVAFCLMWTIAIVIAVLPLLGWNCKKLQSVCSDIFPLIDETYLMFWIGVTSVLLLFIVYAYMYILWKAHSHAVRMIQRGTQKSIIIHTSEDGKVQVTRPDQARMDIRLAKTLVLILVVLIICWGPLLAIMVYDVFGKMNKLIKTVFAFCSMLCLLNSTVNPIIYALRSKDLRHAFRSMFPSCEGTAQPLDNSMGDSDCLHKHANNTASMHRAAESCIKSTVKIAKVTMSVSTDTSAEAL

`CCc1c(-c2nnc(C3(c4cccc(Cl)c4)CC3)s2)nn(-c2ccc(Cl)cc2Cl)c1-c1ccc(Br)cc1` [Example 495, 2-(5-(4-bromophenyl)-1-(2,4-dichlorophenyl)-4-ethyl-1H-pyrazol-3-yl)-5-(1-(3-chlorophenyl)cyclopropyl)-1,3,4-thiadiazole] and `CCc1c(-c2nnc(C3(c4ccccc4F)CC3)s2)nn(-c2ccc(Cl)cc2Cl)c1-c1ccc(Cl)cc1` [Example 501, 2-(5-(4-chlorophenyl)-1-(2,4-dichlorophenyl)-4-ethyl-1H-pyrazol-3-yl)-5-(1-(2-fluorophenyl)cyclopropyl)-1,3,4-thiadiazole] are within 1.5-fold of each other in IC50: 6.23 nM for the first, 6.81 nM for the second.

Compared with `Cc1c(-c2nnc(C3(c4ccc(F)cc4)CC3)s2)nn(-c2ccc(Cl)cc2Cl)c1-c1ccc(Cl)cc1` [Example 496, 2-(5-(4-chlorophenyl)-1-(2,4-dichlorophenyl)-4-methyl-1H-pyrazol-3-yl)-5-(1-(4-fluorophenyl)cyclopropyl)-1,3,4-thiadiazole], `Cc1ccc(C2(c3nnc(-c4nn(-c5ccc(Cl)cc5Cl)c(-c5ccc(Cl)cc5)c4Cn4cncn4)s3)CC2)cc1` [Example 508, 2-(4-((1H-1,2,4-triazol-1-yl)methyl)-5-(4-chlorophenyl)-1-(2,4-dichlorophenyl)-1H-pyrazol-3-yl)-5-(1-p-tolylcyclopropyl)-1,3,4-thiadiazole] is 8.5-fold lower in IC50: 48.9 nM for the first, 5.74 nM for the second. The second is the more potent here.

Compared with `CC(C)c1c(-c2nnc(C3(C(F)(F)F)CC3)s2)nn(-c2ccc(Cl)cc2Cl)c1-c1ccc(Cl)cc1` [Example 498, 2-(5-(4-chlorophenyl)-1-(2,4-dichlorophenyl)-4-isopropyl-1H-pyrazol-3-yl)-5-(1-(trifluoromethyl)cyclopropyl)-1,3,4-thiadiazole], `CCc1c(-c2nnc(C3(C(F)(F)F)CC3)s2)nn(-c2ccc(Cl)cc2Cl)c1-c1ccc(Cl)cc1` [Example 500, 2-(5-(4-chlorophenyl)-1-(2,4-dichlorophenyl)-4-ethyl-1H-pyrazol-3-yl)-5-(1-(trifluoromethyl)cyclopropyl)-1,3,4-thiadiazole] is 2-fold higher in IC50: 11.4 nM for the first, 23.3 nM for the second.

Going from `CCCc1c(-c2nnc(C3(C(F)(F)F)CC3)s2)nn(-c2ccc(Cl)cc2Cl)c1-c1ccc(Cl)cc1` [Example 499, 2-(5-(4-chlorophenyl)-1-(2,4-dichlorophenyl)-4-propyl-1H-pyrazol-3-yl)-5-(1-(trifluoromethyl)cyclopropyl)-1,3,4-thiadiazole] to `Clc1ccc(-c2c(Cn3cncn3)c(-c3nnc(C4CCC4)s3)nn2-c2ccc(Cl)cc2Cl)cc1` [Example 504, 2-(4-((1H-1,2,4-triazol-1-yl)methyl)-5-(4-chlorophenyl)-1-(2,4-dichlorophenyl)-1H-pyrazol-3-yl)-5-cyclobutyl-1,3,4-thiadiazole], the IC50 falls from 21 nM to 2.18 nM (9.6-fold).

`Clc1ccc(-c2c(Cn3cncn3)c(-c3nnc(C4(c5ccc(Cl)cc5)CC4)s3)nn2-c2ccc(Cl)cc2Cl)cc1` [Example 506, 2-(4-((1H-1,2,4-triazol-1-yl)methyl)-5-(4-chlorophenyl)-1-(2,4-dichlorophenyl)-1H-pyrazol-3-yl)-5-(1-(4-chlorophenyl)cyclopropyl)-1,3,4-thiadiazole] and `COc1ccc(C2(c3nnc(-c4nn(-c5ccc(Cl)cc5Cl)c(-c5ccc(Cl)cc5)c4Cn4cncn4)s3)CC2)cc1` [Example 509, 2-(4-((1H-1,2,4-triazol-1-yl)methyl)-5-(4-chlorophenyl)-1-(2,4-dichlorophenyl)-1H-pyrazol-3-yl)-5-(1-(4-methoxyphenyl)cyclopropyl)-1,3,4-thiadiazole] are within 1.5-fold of each other in IC50: 2.49 nM for the first, 2.07 nM for the second.

`Clc1ccc(-c2c(Cn3cncn3)c(-c3nnc(C4(c5ccccc5)CC4)s3)nn2-c2ccc(Cl)cc2Cl)cc1` [Example 507, 2-(4-((1H-1,2,4-triazol-1-yl)methyl)-5-(4-chlorophenyl)-1-(2,4-dichlorophenyl)-1H-pyrazol-3-yl)-5-(1-phenylcyclopropyl)-1,3,4-thiadiazole] gave an IC50 of 1.79 nM.
